In patent US20230357272A1, “OCTAHYDROPYRAZINODIAZANAPHTHYRIDINE DIONE COMPOUNDS” (MEDSHINE DISCOVERY INC., priority 2020, published 2023):
Read-outs that look alike come from different tables or passages of the source.

Assays:
[1] = Pharmacokinetic study of female BALB/c nude mice (plasma and tumor); format: in vivo; settings: for concentration at 1 h / concentration at 4 h / concentration at 8 h: oral, read-out: Mean drug concentration; for Kp: tumor/plasma, read-out: AUC ratio = tumor AUC0-last/plasma AUC0-last
Protocol: This experiment was a pharmacokinetic study of female BALB/c nude mice after oral administration of compound 1D. The experiment was divided into three groups, which were intragastrically administered with 1, 3 and 10 mg/kg of compound 1D, respectively. Animals in each group were divided into two batches, and plasma and tumor tissue samples were collected at different time points after administration. The collection time points of the plasma samples from each group of animals were: 0.083, 0.25, 0.5, 1, 2, 4, 6 and 8 hours, respectively, and the collection time points of tumor tissue samples were 1, 4 and 8 hours, respectively. At the corresponding sample collection time point after administration, plasma was collected, and tumor tissue was dissected and weighed. The plasma was stored at −80° C., and the tumor tissue was stored in a cryopreservation tube and quickly frozen in liquid nitrogen. Cross-collected plasma samples were used to calculate the mean concentration of the corresponding time points in each group for the calculation of PK parameters.

[2] = test system: MIA-PA-CA-2 cells; assay: Anti-proliferation experiment of MIA-PA-CA-2 cells (CellTiter-Glo); format: cell-based; settings: Homo sapiens, MIA PaCa-2, 72 h, 3 days
Protocol: DMEM culture medium, fetal bovine serum purchased from Biosera, and horse serum purchased from Gibco. CellTiter-Glo (chemiluminescence detection reagent for cell viability) reagent purchased from Promega. MIA-PA-CA-2 cell line purchased from Nanjing CoBioer Biotechnology Co., Ltd. EnVision multi-label analyzer (PerkinElmer).
MIA-PA-CA-2 cells were seeded in a white 96-well plate with 80 μL of cell suspension per well, which contained 1000 MIA-PA-CA-2 cells. The cell plate was incubated overnight in a carbon dioxide incubator.
The compounds to be tested were diluted 5-fold with a row gun to the eighth concentration, that is, from 2 mM to 26 nM, and a double-duplication experiment was set up. 78 μL of culture medium was added to a middle plate, and then 2 μL of gradient diluted compound per well was transferred to the middle plate according to the corresponding position. After being thoroughly mixed, 20 μL per well was transferred to the cell plate. The concentration range of the compound transferred to the cell plate was 10 μM to 0.13 nM. The cell plate was placed in the carbon dioxide incubator for 3 days. Another cell plate was prepared, and the signal value was read as the maximum value (Max value in the equation below) on the day of administration to participate in data analysis. 25 μL of cell viability chemiluminescence detection reagent was added to each well of the cell plate, and incubated at room temperature for 10 minutes to stabilize the luminescence signal. A multi-label analyzer was used for reading.
Using the equation (Sample−Min)/(Max−Min)*100% to convert the raw data into inhibition rate, and the value of IC50 might be obtained by curve fitting with four parameters (obtained by “log (inhibitor)/response—Variable scope” mode in GraphPad Prism software). Table 2 provides the inhibitory activity of the compounds of the present disclosure on the proliferation of MIA-PA-CA-2 cells.

[3] = test system: H358 human non-small cell lung cancer cell line; assay: Anti-tumor activity test on in vivo H358 xenograft tumor model; parameters: species or system Female Balb/c nude mice; settings: for T/C / TGI: 28 days; for mean tumor volume: 28 days after administration
Excerpt: Human non-small cell lung cancer H358 was used to investigate the tumor-inhibitory effect of the compound to be tested alone in an in vivo tumor model.
Female Balb/c nude mice were subcutaneously inoculated with the H358 human non-small cell lung cancer cell line, randomly grouped on the 6th day after inoculation according to tumor size and animal body weight, and administered as described below.
Vehicle control group: The administration was started in the afternoon of the grouping day, once a day, and the vehicle (10% DMSO/60% PEG400/30% deionized water) was intragastrically administered at a dose of 0.1 mL/10 g body weight for 28 consecutive days.
Administration group: The administration was started in the afternoon of the grouping day, once a day, and 3 groups were intragastrically administered with compound 1D (10% DMSO/60% PEG400/30% deionized water) at the doses of 1 mg/kg, 3 mg/kg and 10 mg/kg body weight, respectively, for 28 consecutive days.
During the experiment, the mice were weighed twice a week, and the tumor volume was measured (tumor volume was calculated according to the formula of length×width^2/2). The tumor inhibition rate TGI (%) was calculated according to the formula TGI (%)=[(1−mean tumor volume at the end of administration of a treatment group−mean tumor volume at the time of group administration of the treatment group)/(mean tumor volume at the end of treatment of vehicle control group−mean tumor volume at the time of group administration of vehicle control group)]×100%.
The relative tumor volume was calculated as RTV=TVn/TV1×100%
Where TV1 was the tumor volume on the day of group administration, and TVn was the tumor volume on the day of measurement.
Relative tumor proliferation rate (T/C %)=RTVt/RTVc×100%
Where RTVt was the mean relative tumor volume of the treatment group, and RTVc was the mean relative tumor volume of the vehicle control group.

[4] = female, BALB/c nude, mouse, plasma, 1 mg/kg intragastric
[5] = female, BALB/c nude, mouse, plasma, 3 mg/kg intragastric
[6] = female, BALB/c nude, mouse, plasma, 10 mg/kg intragastric
[7] = female, BALB/c nude, mouse, tumor, 1 mg/kg intragastric
[8] = female, BALB/c nude, mouse, tumor, 3 mg/kg intragastric
[9] = female, BALB/c nude, mouse, tumor, 10 mg/kg intragastric
[10] = female, BALB/c nude, mouse, po, plasma, 1 mg/kg intragastric
[11] = female, BALB/c nude, mouse, po, plasma, 3 mg/kg intragastric
[12] = female, BALB/c nude, mouse, po, plasma, 10 mg/kg intragastric
[13] = female, BALB/c nude, mouse, po, tumor, 3 mg/kg intragastric
[14] = female, BALB/c nude, mouse, po, tumor, 10 mg/kg intragastric
[15] = 1 mg/kg intragastric once a day
[16] = 3 mg/kg intragastric once a day
[17] = 10 mg/kg intragastric once a day

C=CC(=O)N1CCN2c3c(c(=O)n(-c4c(C)ccnc4C(C)C)c4c(=O)n(-c5c(N)c(Cl)cc(Cl)c5F)c(C(F)(F)F)cc34)OCC[C@H]2C1 [Compound 1D]
concentration at 1 h [1, 4]: 22.5 nM | concentration at 4 h [1, 4]: 3.58 nM | concentration at 8 h [1, 4]: 1.22 nM | concentration at 1 h [1, 5]: 157 nM | concentration at 4 h [1, 5]: 11.5 nM | concentration at 8 h [1, 5]: 4.13 nM | concentration at 1 h [1, 6]: 285 nM | concentration at 4 h [1, 6]: 54.8 nM | concentration at 8 h [1, 6]: 30.6 nM | concentration at 1 h [1, 7]: 10.4 nM | concentration at 4 h [1, 7]: 2.04 nM | concentration at 1 h [1, 8]: 136 nM | concentration at 4 h [1, 8]: 9.78 nM | concentration at 8 h [1, 8]: 2.78 nM | concentration at 1 h [1, 9]: 203 nM | concentration at 4 h [1, 9]: 37.9 nM | concentration at 8 h [1, 9]: 20.8 nM | AUC(0-t) [1, 10]: 0.0544 µM·h | Tmax [1, 10]: 0.25 h | half-life [1, 10]: 2.57 h | Cmax ([1]; female, BALB/c nude, mouse, po, plasma, 1 mg/kg intragastric, read-out: Cmax): 40.8 nM | AUC(0-t) [1, 11]: 0.287 µM·h | Tmax [1, 11]: 0.5 h | half-life [1, 11]: 2.2 h | Cmax ([1]; female, BALB/c nude, mouse, po, plasma, 3 mg/kg intragastric, read-out: Cmax): 191 nM | AUC(0-t) [1, 12]: 0.84 µM·h | Tmax [1, 12]: 0.25 h | half-life [1, 12]: 1.99 h | Cmax ([1]; female, BALB/c nude, mouse, po, plasma, 10 mg/kg intragastric, read-out: Cmax): 348 nM | Tmax [1, 13]: 1 h | half-life [1, 13]: 1.28 h | Tmax [1, 14]: 1 h | half-life [1, 14]: 2.19 h | Kp ([1]; female, BALB/c nude, mouse, po, 3 mg/kg intragastric): 0.815 | Kp ([1]; female, BALB/c nude, mouse, po, 10 mg/kg intragastric): 0.608 | Tlast ([1]; plasma, 1 mg/kg intragastric): 8.00 h | Tlast ([1]; plasma, 3 mg/kg intragastric): 8.00 h | Tlast ([1]; plasma, 10 mg/kg intragastric): 8.00 h | AUC0-last ([1]; tumor, 3 mg/kg intragastric): 234 nmol·h/kg | Cmax ([1]; tumor, 3 mg/kg intragastric): 136 nmol/kg | Tlast ([1]; tumor, 3 mg/kg intragastric): 8.00 h | AUC0-last ([1]; tumor, 10 mg/kg intragastric): 511 nmol·h/kg | Cmax ([1]; tumor, 10 mg/kg intragastric): 203 nmol/kg | Tlast ([1]; tumor, 10 mg/kg intragastric): 8.00 h | IC50 [2]: 8 nM | T/C [3, 15]: 51.35% | TGI [3, 15]: 58.78% | mean tumor volume [3, 15]: 341.36 mm^3 | T/C [3, 16]: 27.59% | TGI [3, 16]: 84.17% | mean tumor volume [3, 16]: 199.4 mm^3 | T/C [3, 17]: 5.76% | TGI [3, 17]: 113.19% | mean tumor volume [3, 17]: 37.5 mm^3
